From patent EP0904128B1, “COMPOSITION AND SYSTEM FOR IONTOPHORETIC TRANSDERMAL DELIVERY OF DRUGS” (priority 1996, dated 1997)
Read-outs that look alike come from different tables or passages of the source.

Assays:
[1] = pH 7.0 phosphate buffer (200 mM) containing 6.27 g/l NaCl; donor solution 50 µg/ml; Hirvonen 1994; cited from earlier work
[2] = experiment 3; for salicylate release / permeation through epidermis: epidermis between fiber disc and phosphate buffer pH 7.4 (6 mM, µ=0.2), zero-order after lag time
Description: Drug release in vitro from the fiber discs at 37 °C was tested in Franz diffusion cells (Crown Glass Co. Inc., Somerville, NJ) (Fig. 3). […] The fiber discs 10 were placed in the diffusion cells so that one side of the anionic ion-exchange fiber was exposed to the dissolution medium. The dissolution medium was pH 7.4 phosphate buffer saline (PBS, 143 mM, µ=0.15 (µ = ionic strength)) in experiment 1 and pH 7.4 phosphate buffer (6 mM, µ=0.2) in experiments 2 and 3. To assess the effect of the skin on drug release (experiment 3), a piece of epidermis 13 was placed between the fiber disc and buffer solution. At fixed times, samples of 250 µl were withdrawn and the drug concentration in the samples were determined by using HPLC (Beckman System Gold, Beckman Instrument, San Ramon, CA) with a Supelcosil LC-18-DB column (5 µm, 150 x 4.6 mm) (Supelco Inc., Rohm and Haab Co., Bellefonte, PA). The mobile phase was a binary mixture of methanol (40 % v/v) and pH 7.0 phosphate buffer (60 %). The detection wavelenght was 298 nm, and the flow rate of 1.0 ml/min, the retention time was 2.6 min.

[3] = in vivo; cited from earlier work
[4] = for Tacrine permeation Flux: Average ± standard deviation
[5] = human, pH 7.4
Description: Electrodes for iontophoresis were prepared from silver wire and silver chloride (Aldrich-Chemie, Steinheim, Germany). Direct current (0,5 mA/cm^2) during iontophoresis was delivered by HP 6181C DC current source (Hewlett-Packard, Cupertino, CA) from the electrodes to the diffusion chambers via salt bridges. Salt bridges were prepared by injecting 1 M NaCl-gel (3 % agar) inside plastic tubing (diameter 4 mm, length ca. 15 cm). […] Transdermal permeation of ions increase most during iontophoresis due to electrostatic repulsion. […] Because Ag/AgCl-electrodes cause precipitation of phosphates, we used HEPES-buffer at pH 7,4 during the iontophoresis experiments. […] The chambers were connected in series as constant DC-current was used.

Compound	in vitro permeability of anionic salicylate through skin [1]	salicylate release / permeation through epidermis [2]	salicylate release / permeation through epidermis ([2]; listed as Salicylate) [µg/h]	Lag time before steady state release ([2]; with skin)	Clearance CL [3]	elimination half-life T1/2 [3]	peroral bioavailability [3]	Tacrine permeation Flux ([4]; Passive permeation (3.5 % in ion-exchange fiber)) [µg/ h per cm^2]	Tacrine permeation Flux ([4]; Passive permeation (5 % solution)) [µg/ h per cm^2]	Lag-time of permeation ([4]; human, 5 %, pH 7)	Delivery of tacrine across the skin from the cationic ion-exchange fiber ([4]; passive, 3,5 % tacrine in cationic ion-exchange fiber)	Steady-state flux of tacrine across human skin in vitro ([4]; passive, 5 % solution, pH 7,4)	iontophoretic delivery compared to passive permeation from the ion-exchange fiber ([5]; 3.5 %)	lag-time of drug permeation ([5]; 5 %)
O=C([O-])c1ccccc1O.[Na+] [salicylate, Sodium salicylate]	about 0.34 µg/cm^2/h	about 0.08 µg/h	0.08	about 2 h										
Nc1c2c(nc3ccccc13)CCCC2 [tacrine, 9-amino-1,2,3,4-tetrahydroacridine]					about 150 l/h	1,4 - 3,6 h	5 - 35%	0.003±0.0006	2.95±0.66	ca. 24 h	about 0,003 g/h per cm^2	2,95 g/h per cm^2	> 10 000 -fold	about 0,5 h
